Key:
[1] = system: carotid artery endothelial layer; assay: ex vivo transfer of drug crystals from an ePTFE substrate to a vascular tissue; set-up: species or system swine; conditions: 60 sec compression at 5.4 atm
Procedure: Substrates of ePTFE of Examples 1 and 2 were coated with paclitaxel (10 mg/ml) or paclitaxel/urea (1:1 mass ratio; 10 mg/ml paclitaxel) according to Example 4. The substrates were examined under SEM to confirm the presence of high aspect paclitaxel crystal habits embedded and oriented in the ePTFE microstructure.
A freshly harvested carotid artery from >2 yr old swine (Animal Technologies Inc., Tyler TX) was slit axially using a scalpel blade, cut lengthwise into portions, everted, and the portions adhered to a glass microscope slide using cyanoacrylate adhesive (Loctite), luminal aspect up. Tissue portions were kept wet using phosphate-buffered saline until use.
The glass microscope slide containing the artery portion was gently placed, tissue side down, upon the coated ePTFE substrate, to expose the endothelial layer to the paclitaxel crystals. The endothelial layer was compressed at about 5.4 atm against the coated ePTFE substrate for 60 sec. The glass microscope slide containing the artery portion was then examined under SEM.

[2] = ethylene oxide sterilization of coated ePTFE substrates, SEM visualization; assay type: physicochemical; conditions: conditioning about 24 hr, EtO dwell about 22 hr, 64° C., aeration about 12 hrs; samples of Examples 6 and 7
Procedure: Representative samples of Examples 6 and 7 were exposed to ethylene oxide sterilization, under conditions of conditioning for about 24 hr, an EtO gas dwell time of about 22 hr, a set point temperature of 64° C., and an aeration time of about 12 hrs. The samples were then visualized with SEM.

In the case of CC(=O)O[C@H]1C(=O)[C@@]2(C)[C@H]([C@H](OC(=O)c3ccccc3)[C@]3(O)C[C@H](OC(=O)[C@H](O)[C@@H](NC(=O)c4ccccc4)c4ccccc4)C(C)=C1C3(C)C)[C@]1(OC(C)=O)CO[C@@H]1C[C@@H]2O [paclitaxel], the “high aspect ratio of the crystals after compression (mechanical stability and strength)” value [1] is reported as “intact” and the “acicular habits, geometry, penetration into ePTFE and angles of projection after ethylene oxide sterilization” value [2] is reported as “unaffected”.

From patent US12458732B2, “Porous composites with high-aspect ratio crystals” (W. L. Gore & Associates, Inc., priority 2013, dated 2025)
